Assay type in all cases: functional
For one experiment, the system named is HT-29. Description: Cytotoxicity against human HT-29 cells assessed as cell growth at 0.01 uM incubated for 48 hrs by sulforhodamine B assay relative to control. Conditions: HT-29, 48 h, read-out: Activity.
In a further experiment the test system is SK-OV-3. In words: Cytotoxicity against human SKOV3 cells assessed as cell growth at 0.01 uM incubated for 48 hrs by sulforhodamine B assay relative to control. Conditions: SK-OV-3, 48 h, read-out: Activity.
A further experiment has as its system U-251. In words: Cytotoxicity against human U251 cells assessed as cell growth at 100 uM incubated for 48 hrs by sulforhodamine B assay relative to control. Conditions: U-251, 48 h, read-out: Activity. Background: In SRB staining, fixed cells bind dye roughly in proportion to their protein.
Another experiment deals with NCI-H460. Description: Cytotoxicity against human NCI-H460 cells assessed as cell growth at 0.1 uM incubated for 48 hrs by sulforhodamine B assay relative to control. Conditions: NCI-H460, 48 h, read-out: Activity.
In another experiment the test system is T47D. In words: Cytotoxicity against human T47D cells assessed as cell growth at 1 uM incubated for 48 hrs by sulforhodamine B assay relative to control. Conditions: read-out: Activity.
Experiment [1] deals with HL-60(TB). Description: Cytotoxicity against human HL-60(TB) cells assessed as cell growth at 1 uM incubated for 48 hrs by sulforhodamine B assay relative to control. Conditions: HL-60, 48 h, read-out: Activity.
Another experiment concerns SR. In words: Cytotoxicity against human SR cells assessed as cell growth at 100 uM incubated for 48 hrs by sulforhodamine B assay relative to control. Conditions: read-out: Activity.
A further experiment deals with OVCAR-5. In words: Cytotoxicity against human OVCAR5 cells assessed as cell growth at 0.01 uM incubated for 48 hrs by sulforhodamine B assay relative to control. Conditions: OVCAR-5, 48 h, read-out: Activity.
The next experiment has as its system SK-MEL-5. Description: Cytotoxicity against human SK-MEL-5 cells incubated for 48 hrs by sulforhodamine B assay. Conditions: SK-MEL-5, 48 h.
The subject of another experiment is COLO 205. In words: Cytotoxicity against human COLO205 cells assessed as cell growth at 100 uM incubated for 48 hrs by sulforhodamine B assay relative to control. Conditions: COLO 205, 48 h, read-out: Activity.
The subject of another experiment is SF-268. In words: Cytotoxicity against human SF268 cells assessed as cell growth at 100 uM incubated for 48 hrs by sulforhodamine B assay relative to control. Conditions: SF-268, 48 h, read-out: Activity.
The next experiment deals with IGROV-1. Description: Cytotoxicity against human IGROV1 cells assessed as cell growth at 10 uM incubated for 48 hrs by sulforhodamine B assay relative to control. Conditions: IGROV-1, 48 h, read-out: Activity.
In experiment [2] the test system is HL-60(TB). Description: Cytotoxicity against human HL-60(TB) cells assessed as cell growth at 100 uM incubated for 48 hrs by sulforhodamine B assay relative to control. Conditions: HL-60, 48 h, read-out: Activity.
A further experiment concerns NCI-H522. In words: Cytotoxicity against human NCI-H522 cells assessed as cell growth at 100 uM incubated for 48 hrs by sulforhodamine B assay relative to control. Conditions: NCI-H522, 48 h, read-out: Activity.

The record followed here is ChEMBL document CHEMBL4145521, “Regioselective synthesis of 3,4-diaryl-5-unsubstituted isoxazoles, analogues of natural cytostatic combretastatin A4” (Eur J Med Chem, 2018).

As to `COc1ccc(-c2nocc2-c2cc(OC)c(OC)c(OC)c2)cc1`, the growth at 0.01 µM in the experiment on HT-29 was found to be 98%; in the experiment on SK-OV-3, 87%; in the experiment on OVCAR-5, 89%. The growth at 100 µM is -4% with U-251; -7% in the experiment on SR; -40% with COLO 205; 1% in the experiment on SF-268; -15% with HL-60(TB) [2]; -48% in the experiment with NCI-H522. In the experiment on NCI-H460, the growth at 0.1 µM worked out at 30%. Moreover, the growth at 1 µM in the experiment with T47D was 37%; in the experiment with HL-60(TB) [1] it was -17%. Also, the GI50 with SK-MEL-5 (read-out: GI50) was 0.0715 µM; with SK-MEL-5 (read-out: pGI50 (converted)), 0.0708 µM. Also, the values for the LC50 (concentration killing 50% of cells) with SK-MEL-5 (read-out: LC50) and in the experiment on SK-MEL-5 (read-out: pLC50 (converted)) were 27.7 µM and 27.5 µM, respectively. In addition, the TGI with SK-MEL-5 (read-out: TGI) and in the experiment on SK-MEL-5 (read-out: pTGI) was 5.25 µM throughout. The growth at 10 µM in the experiment with IGROV-1 turned out to be 25%.
